# Patent US8618286B2, “Benzoxazines, benzothiazines, and related compounds having NOS inhibitory activity” (NeurAxon, Inc., priority 2008, dated 2013)
# Columns and labels:
# [1] = biological target: Nitric oxide synthase (endothelial, human recombinant) eNOS (Homo sapiens (Human), UniProt P29474); test: Human eNOS enzyme assay ([3H]-L-arginine to L-citrulline conversion); format: biochemical
# Method: nNOS (Human), eNOS (Human) and iNOS (Human) Enzyme Assay
# Primary stock solutions of test compounds at a concentration of 6 mM were prepared from the 2 to 5 mg powder. The primary stock solutions of each test compound were prepared freshly in distilled water on the day of study to obtain a final concentration of 6 mM. For determination of IC50 values, 12 test compound concentrations were prepared as 3-fold serial dilutions. Concentration range of test compound utilized for nNOS were 0.001 to 300 μM and for eNOS were 0.003 to 1000 μM. The vehicle of the test compound or inhibitor was used as blank control. For non-specific activity, 100 μM L-NMMA was used. Runs using the IC50 concentration of L-NAME were done in parallel as controls.
# All incubations are performed in duplicate
# The reaction mixture was prepared on ice by adding the following components with a micropipette to a polypropylene microcentrifuge tube: • 10 μL of test compound, inhibitor or control (vehicle or L-NMMA) solution; • 25 μL of Reaction Buffer {25 mM Tris-HCl, 0.6 μM BH4, 0.2 μM FMN, 0.2 μM FAD}; • 5 μL of 10 mM NADPH solution {1 mM} (freshly prepared in 10 mM Tris-HCl (pH 7.4); • 5 μL of 6 mM CaCl2 {600 W}; • 5 μL of 1 mM Calmodulin {100 W}; and • 5 μL of 0.02 μg/μL nNOS or 0.12 μg/μL eNOS.
# The above reaction mixture was pre-incubated at room temperature for 15 mins.
# The reaction was started by the addition of the substrate (in 5 μL containing 1 μCi of [^3H]-L-Arginine+2.5 μM of unlabeled L-Arginine) to the reaction mixture. Total reaction volume is 60 μL.
# The reaction was mixed using a vortex mixer and incubate the above reaction mixture at 37° C. in an incubator for 30 minutes.
# To stop the reaction, 400 μL of ice-cold Stop Buffer was added at the end of the incubation period.
# The reaction was then mixed using a vortex mixer, and the reaction samples were transferred to spin cups, which were centrifuged using a microcentrifuge, at 13,000 rpm for 30 sec. at room temperature.
# The spin cups were removed from the holder, 450 μL of eluate (containing the unbound L-citrulline) were transferred to scintillation vials. 3 mL of scintillation fluid were added and the radioactivity was quantified in a liquid scintillation counter.
# Data was analyzed using a Sigmoidal dose-response (variable slope) curve to determine the IC50 value of the test compound. Y=Bottom+(Top−Bottom)/(1+10^((Log IC50−X)*Hill Slope))
# [2] = test system: dural inflammation model of migraine; test: Dural inflammation rat model of migraine; format: in vivo; conditions: rats, 3 mg/kg p.o., about 15 min pre-IS, measured up to 6 hours post IS
# Method: These features mimic the characteristic often seen in migraineurs during a headache, especially when treatment is delayed, and the development of central sensitization has occurred (Burstein et al., Ann. Neurol. 47:614-624, 2000; Burstein et al., Brain, 123:1703-1709, 2000). Compound (8) was tested in a dural inflammation model of migraine according to previously described procedures (WO 2007/120830 or as described in US-2008-0031822-A1). Baseline paw withdrawal thresholds were recorded approximately 30 min before the IS administration by application of calibrated von Frey filaments to the hindpaws to measure tactile allodynia. Approximately 15 minutes pre-IS administration, the test compound in water was administered by oral gavage (1 mL/kg) at a dose of 3 mg/kg per os (p.o.). Measurements of tactile allodynia were recorded at 1 hour intervals up to 6 hours post IS administration.
# [3] = test system: Carrageenan model of inflammatory pain; test: Carrageenan model of inflammatory pain; format: in vivo, rat; conditions: rats
# Method: Inflammation was induced by injecting 0.1 mL of a 3% carrageenan suspension s.c. into the supplanter aspect of a hindpaw of lightly anesthetized rats. Typically, pronounced inflammation and edema were obvious within three hours of the injection. The carrageenan model is a model of inflammatory pain with two components: the first occurring immediately after injection provides information on the acute nociceptive response to a painful stimulus (in this case, the chemical carrageenan). There is also a second, neurogenic component that develops several hours later and reflects the type of neuronal activity due to the hyperalgesic and allodynic components as found in neuropathic pain. Considerable evidence has shown that NO and its enzymes are involved in the central mechanisms of inflammatory hyperalgesia at the spinal cord level and that peripheral inflammation can upregulate nNOS expression and induce iNOS expression in the spinal cord (Guhring et al., J. Neurosci. 20:6714-6720, 2000; Wu et al., Exp. Brain Res. 118:457-465, 1998; and Wu et al., Pain 94:47-58, 2001).
# [4] = test system: L5/L6 spinal nerve ligation model of neuropathic pain (Chung model); test: Chung L5/L6 spinal nerve ligation model of neuropathic pain; format: in vivo, rat; conditions: rats, L5/L6 SNL
# Method: The L5/L6 spinal nerve was surgically ligated and animals allowed to recover for a period of 7-10 days. During this period animals develop neuropathic pain. The reduction of paw withdrawal latency after an infrared thermal stimulus (post-SNL) was measured following the induction period for comparison with pre-surgery baseline levels (BL). Following drug administration, thermal hyperalgesia was measured at various time points.
# The L5/L6 spinal nerve was surgically ligated and animals allowed to recover for a period of 7-10 days. During this period animals develop neuropathic pain. The reduction of tactile thresholds (post-SNL) was measured following the induction period for comparison with pre-surgery baseline levels (BL). Following drug administration, tactile allodynia was measured at various time points with calibrated von-Frey filaments.
# The experimental designs for the Chung Spinal Nerve Ligation SNL Model assay for neuropathic pain are depicted in FIGS. 1 and 2. Nerve ligation injury was performed according to the method described by Kim and Chung (Kim and Chung, Pain 50:355-363, 1992). This technique produces signs of neuropathic dysesthesias, including tactile allodynia, thermal hyperalgesia, and guarding of the affected paw. Rats were anesthetized with halothane, and the vertebrae over the L4 to S2 region were exposed. […]
structure (smiles),measurement,setting,value
"CNCCN1CCSc2cc(NC(=N)c3cccs3)ccc21 [Compound 8, N-(4-(2-(methylamino)ethyl)-3,4-dihydro-2H-benzo[b][1,4]thiazin-7-yl)thiophene-2-carboximidamide]",IC50,[1],33.5 µM
same,"antiallodynic effect (tactile allodynia, hindpaw)",[2],antiallodynic effect
same,reversal of mechanical allodynia,"[3]; ipsilateral paw, 60, 100, or 200 mg/kg p.o. (FIG. 6)",reversal of mechanical allodynia
same,"reversal of thermal hyperalgesia (late phase), paw withdrawal latency","[3]; ipsilateral paw, text: i.p. dosing, FIG. 7 legend: 60, 100, or 200 mg/kg p.o.",reversal of thermal hyperalgesia
same,reversal of tactile allodynia,"[4]; i.p. 30 mg/kg, von Frey filaments",reversal of tactile allodynia
same,reversal of thermal hyperalgesia,"[4]; i.p., text: e.g. 3 mg/kg, FIG. 3 legend: 30 mg/kg",clear effect
